Test results: ChEMBL document CHEMBL4680176, “Identification of DOT1L inhibitors by structure-based virtual screening adapted from a nucleoside-focused library” (Eur J Med Chem, 2020); call rule not given here

Legend:
[1] = biological target: Protein arginine N-methyltransferase 3 (Homo sapiens, UniProt O60678); test: Inhibition of recombinant human PRMT3 using histone H4 as substrate by hotspot assay; settings: read-out: IC50
[2] = biological target: Histone-lysine N-methyltransferase EZH2 (Homo sapiens, UniProt Q15910); test: Inhibition of recombinant human EZH2 using core histone as substrate by hotspot assay
[3] = biological target: DNA (cytosine-5)-methyltransferase 1 (Homo sapiens, UniProt P26358); test: Inhibition of recombinant human DNMT1 using poly(dl-dC) as substrate by hotspot assay; settings: read-out: IC50
[4] = biological target: T1, Histone-lysine N-methyltransferase SETD7 (Homo sapiens, UniProt Q8WTS6); test: Inhibition of recombinant human SET7/9 using core histone as substrate by hotspot assay
T1 sequence (Q8WTS6 whole entry): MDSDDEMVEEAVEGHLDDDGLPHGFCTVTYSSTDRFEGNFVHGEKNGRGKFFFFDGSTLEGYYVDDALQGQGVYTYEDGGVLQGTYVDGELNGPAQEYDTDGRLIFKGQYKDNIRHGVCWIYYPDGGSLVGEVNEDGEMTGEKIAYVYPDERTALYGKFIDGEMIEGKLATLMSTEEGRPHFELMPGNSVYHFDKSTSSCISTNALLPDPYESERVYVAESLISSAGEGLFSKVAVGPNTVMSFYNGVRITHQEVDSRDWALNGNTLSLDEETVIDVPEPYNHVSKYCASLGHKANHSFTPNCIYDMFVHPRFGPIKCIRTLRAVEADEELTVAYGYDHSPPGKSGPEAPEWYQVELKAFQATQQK

[5] = biological target: Histone-lysine N-methyltransferase, H3 lysine-79 specific (Homo sapiens, UniProt Q8TEK3); test: Inhibition of recombinant human N-terminal GST-tagged DOT1L (1 to 420 residues) expressed in Escherichia coli BL21 (DE3) using histone as substrate incubated for 1 hr by MTase-glo based luminescence assay
[6] = biological target: T2, Histone-lysine N-methyltransferase EHMT2 (Homo sapiens, UniProt Q96KQ7); test: Inhibition of recombinant human G9a using histone H3 (1 to 21) as substrate by hotspot assay
T2 sequence (Q96KQ7 whole entry): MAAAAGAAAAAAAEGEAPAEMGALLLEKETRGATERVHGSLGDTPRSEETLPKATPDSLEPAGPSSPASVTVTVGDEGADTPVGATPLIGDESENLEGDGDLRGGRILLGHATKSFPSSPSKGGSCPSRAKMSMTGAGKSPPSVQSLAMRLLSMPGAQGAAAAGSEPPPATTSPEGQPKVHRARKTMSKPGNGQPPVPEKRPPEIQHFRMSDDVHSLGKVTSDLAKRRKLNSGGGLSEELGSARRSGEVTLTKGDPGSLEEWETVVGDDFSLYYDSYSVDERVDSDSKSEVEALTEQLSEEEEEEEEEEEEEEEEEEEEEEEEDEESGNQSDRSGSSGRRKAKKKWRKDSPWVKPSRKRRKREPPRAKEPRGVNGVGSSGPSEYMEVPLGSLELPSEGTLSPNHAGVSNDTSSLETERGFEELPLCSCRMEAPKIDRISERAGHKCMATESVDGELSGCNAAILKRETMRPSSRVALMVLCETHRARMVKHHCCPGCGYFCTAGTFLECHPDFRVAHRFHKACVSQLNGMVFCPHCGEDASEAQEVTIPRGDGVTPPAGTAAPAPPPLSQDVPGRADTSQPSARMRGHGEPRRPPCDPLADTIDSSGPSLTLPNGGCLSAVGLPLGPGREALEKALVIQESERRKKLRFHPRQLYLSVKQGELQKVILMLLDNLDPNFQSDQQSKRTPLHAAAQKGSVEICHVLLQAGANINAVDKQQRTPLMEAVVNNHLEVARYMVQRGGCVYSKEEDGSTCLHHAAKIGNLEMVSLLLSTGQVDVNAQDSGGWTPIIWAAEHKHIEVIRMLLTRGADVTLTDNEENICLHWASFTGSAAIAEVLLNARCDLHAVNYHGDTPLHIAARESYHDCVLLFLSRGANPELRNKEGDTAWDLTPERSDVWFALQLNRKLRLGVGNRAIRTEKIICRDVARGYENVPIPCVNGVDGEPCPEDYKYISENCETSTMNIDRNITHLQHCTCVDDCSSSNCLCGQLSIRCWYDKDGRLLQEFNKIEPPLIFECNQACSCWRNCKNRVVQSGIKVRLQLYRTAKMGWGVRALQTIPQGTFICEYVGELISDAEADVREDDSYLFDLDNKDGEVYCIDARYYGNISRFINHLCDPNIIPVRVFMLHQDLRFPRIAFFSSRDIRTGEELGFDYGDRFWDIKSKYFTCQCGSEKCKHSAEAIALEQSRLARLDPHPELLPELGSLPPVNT

[7] = biological target: T3, Protein arginine N-methyltransferase 7 (Homo sapiens, UniProt Q9NVM4); test: Inhibition of recombinant human PRMT7 using GST-GAR as substrate by hotspot assay
T3 sequence (Q9NVM4 whole entry): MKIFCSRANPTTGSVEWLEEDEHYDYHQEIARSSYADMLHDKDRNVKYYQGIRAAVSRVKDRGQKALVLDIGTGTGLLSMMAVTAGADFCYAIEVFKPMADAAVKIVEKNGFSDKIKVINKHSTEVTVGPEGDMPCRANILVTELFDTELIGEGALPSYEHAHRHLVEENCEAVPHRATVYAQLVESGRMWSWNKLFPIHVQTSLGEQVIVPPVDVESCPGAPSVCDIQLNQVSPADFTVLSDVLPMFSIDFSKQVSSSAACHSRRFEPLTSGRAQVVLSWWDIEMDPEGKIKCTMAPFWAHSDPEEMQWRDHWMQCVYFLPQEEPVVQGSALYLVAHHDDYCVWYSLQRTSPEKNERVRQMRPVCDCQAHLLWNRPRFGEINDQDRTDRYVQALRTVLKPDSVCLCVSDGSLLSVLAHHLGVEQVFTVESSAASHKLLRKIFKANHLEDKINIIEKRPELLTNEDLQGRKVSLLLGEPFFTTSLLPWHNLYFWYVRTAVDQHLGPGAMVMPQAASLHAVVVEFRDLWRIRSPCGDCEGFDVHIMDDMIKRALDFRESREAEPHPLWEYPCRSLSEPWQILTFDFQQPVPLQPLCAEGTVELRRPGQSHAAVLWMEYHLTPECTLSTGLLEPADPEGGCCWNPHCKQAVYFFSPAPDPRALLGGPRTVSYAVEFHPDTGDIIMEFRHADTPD

Bone marrow cell [8] = test: Antiproliferative activity against mouse bone marrow cell transformed with MLL-AF9 assessed as reduction in cell growth at 30 uM measured after 11 days by hemocytometry relative to control; assay type: functional; settings: 264 h, time 11 day
Bone marrow cell [9] = test: Antiproliferative activity against mouse bone marrow cell transformed with MLL-AF9 assessed as reduction in cell growth measured after 11 days by hemocytometry; assay type: functional, cell-based; settings: 264 h
Bone marrow cell [10] = test: Antiproliferative activity against mouse bone marrow cell transformed with MLL-AF9 assessed as reduction in cell growth measured after 9 days by hemocytometry; assay type: functional, cell-based; settings: 216 h
[11] = biological target: Protein arginine N-methyltransferase 5 (Homo sapiens, UniProt O14744); test: Inhibition of recombinant human PRMT5 using histone H2A as substrate by hotspot assay; settings: read-out: IC50
Sequence of Protein arginine N-methyltransferase 5 (O14744 whole entry): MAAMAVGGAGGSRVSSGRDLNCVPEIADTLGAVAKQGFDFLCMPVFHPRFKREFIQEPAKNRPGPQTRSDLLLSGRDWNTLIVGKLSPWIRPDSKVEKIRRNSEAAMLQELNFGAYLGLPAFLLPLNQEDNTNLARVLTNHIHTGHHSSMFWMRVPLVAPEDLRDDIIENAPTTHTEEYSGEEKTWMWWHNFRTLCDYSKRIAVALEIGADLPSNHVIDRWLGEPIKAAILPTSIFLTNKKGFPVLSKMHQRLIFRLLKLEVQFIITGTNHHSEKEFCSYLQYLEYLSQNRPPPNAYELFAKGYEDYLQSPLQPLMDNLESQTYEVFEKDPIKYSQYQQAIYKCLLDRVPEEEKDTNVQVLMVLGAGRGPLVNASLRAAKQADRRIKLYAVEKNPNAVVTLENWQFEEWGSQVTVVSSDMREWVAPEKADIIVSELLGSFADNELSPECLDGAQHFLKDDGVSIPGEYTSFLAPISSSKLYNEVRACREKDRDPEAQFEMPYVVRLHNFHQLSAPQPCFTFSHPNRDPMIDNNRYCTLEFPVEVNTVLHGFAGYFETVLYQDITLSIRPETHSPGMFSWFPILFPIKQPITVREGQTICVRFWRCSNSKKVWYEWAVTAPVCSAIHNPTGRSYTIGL

Sequence of Histone-lysine N-methyltransferase EZH2 (Q15910 whole entry): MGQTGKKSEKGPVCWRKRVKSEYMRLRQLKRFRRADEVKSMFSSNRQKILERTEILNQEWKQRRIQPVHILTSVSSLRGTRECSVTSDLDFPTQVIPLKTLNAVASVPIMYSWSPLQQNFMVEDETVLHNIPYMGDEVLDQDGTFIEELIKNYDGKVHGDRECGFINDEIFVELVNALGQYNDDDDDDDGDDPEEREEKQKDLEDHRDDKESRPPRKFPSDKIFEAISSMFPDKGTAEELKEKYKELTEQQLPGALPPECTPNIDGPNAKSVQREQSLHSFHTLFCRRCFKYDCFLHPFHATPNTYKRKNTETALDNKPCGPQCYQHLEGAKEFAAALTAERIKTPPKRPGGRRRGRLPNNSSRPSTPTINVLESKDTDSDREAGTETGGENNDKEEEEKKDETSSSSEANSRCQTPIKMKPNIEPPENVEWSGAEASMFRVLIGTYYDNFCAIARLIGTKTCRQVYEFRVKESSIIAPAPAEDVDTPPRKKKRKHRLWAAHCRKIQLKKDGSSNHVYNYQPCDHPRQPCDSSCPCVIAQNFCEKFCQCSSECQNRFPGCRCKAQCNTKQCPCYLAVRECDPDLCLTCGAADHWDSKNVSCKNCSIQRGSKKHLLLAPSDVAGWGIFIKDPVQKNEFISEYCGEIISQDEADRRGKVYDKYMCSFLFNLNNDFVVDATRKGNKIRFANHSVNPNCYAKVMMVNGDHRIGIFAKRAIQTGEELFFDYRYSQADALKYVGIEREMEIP
Sequence of Protein arginine N-methyltransferase 3 (O60678 whole entry): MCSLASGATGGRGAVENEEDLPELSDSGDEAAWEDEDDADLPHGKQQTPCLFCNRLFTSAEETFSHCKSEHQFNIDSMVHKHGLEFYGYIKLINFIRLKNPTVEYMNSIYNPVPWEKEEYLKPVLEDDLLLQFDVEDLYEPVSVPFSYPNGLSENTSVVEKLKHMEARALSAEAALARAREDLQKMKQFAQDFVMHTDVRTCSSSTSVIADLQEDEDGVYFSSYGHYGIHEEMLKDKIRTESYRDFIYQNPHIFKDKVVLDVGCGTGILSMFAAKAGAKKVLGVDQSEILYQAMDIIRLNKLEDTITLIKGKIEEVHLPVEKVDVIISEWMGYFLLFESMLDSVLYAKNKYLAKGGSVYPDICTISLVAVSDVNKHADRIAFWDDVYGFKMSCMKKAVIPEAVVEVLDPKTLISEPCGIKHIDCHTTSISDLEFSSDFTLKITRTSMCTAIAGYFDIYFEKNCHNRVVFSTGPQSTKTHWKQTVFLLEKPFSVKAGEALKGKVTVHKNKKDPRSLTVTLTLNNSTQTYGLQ
Sequence of Histone-lysine N-methyltransferase, H3 lysine-79 specific (Q8TEK3 whole entry, the tested form may be a part): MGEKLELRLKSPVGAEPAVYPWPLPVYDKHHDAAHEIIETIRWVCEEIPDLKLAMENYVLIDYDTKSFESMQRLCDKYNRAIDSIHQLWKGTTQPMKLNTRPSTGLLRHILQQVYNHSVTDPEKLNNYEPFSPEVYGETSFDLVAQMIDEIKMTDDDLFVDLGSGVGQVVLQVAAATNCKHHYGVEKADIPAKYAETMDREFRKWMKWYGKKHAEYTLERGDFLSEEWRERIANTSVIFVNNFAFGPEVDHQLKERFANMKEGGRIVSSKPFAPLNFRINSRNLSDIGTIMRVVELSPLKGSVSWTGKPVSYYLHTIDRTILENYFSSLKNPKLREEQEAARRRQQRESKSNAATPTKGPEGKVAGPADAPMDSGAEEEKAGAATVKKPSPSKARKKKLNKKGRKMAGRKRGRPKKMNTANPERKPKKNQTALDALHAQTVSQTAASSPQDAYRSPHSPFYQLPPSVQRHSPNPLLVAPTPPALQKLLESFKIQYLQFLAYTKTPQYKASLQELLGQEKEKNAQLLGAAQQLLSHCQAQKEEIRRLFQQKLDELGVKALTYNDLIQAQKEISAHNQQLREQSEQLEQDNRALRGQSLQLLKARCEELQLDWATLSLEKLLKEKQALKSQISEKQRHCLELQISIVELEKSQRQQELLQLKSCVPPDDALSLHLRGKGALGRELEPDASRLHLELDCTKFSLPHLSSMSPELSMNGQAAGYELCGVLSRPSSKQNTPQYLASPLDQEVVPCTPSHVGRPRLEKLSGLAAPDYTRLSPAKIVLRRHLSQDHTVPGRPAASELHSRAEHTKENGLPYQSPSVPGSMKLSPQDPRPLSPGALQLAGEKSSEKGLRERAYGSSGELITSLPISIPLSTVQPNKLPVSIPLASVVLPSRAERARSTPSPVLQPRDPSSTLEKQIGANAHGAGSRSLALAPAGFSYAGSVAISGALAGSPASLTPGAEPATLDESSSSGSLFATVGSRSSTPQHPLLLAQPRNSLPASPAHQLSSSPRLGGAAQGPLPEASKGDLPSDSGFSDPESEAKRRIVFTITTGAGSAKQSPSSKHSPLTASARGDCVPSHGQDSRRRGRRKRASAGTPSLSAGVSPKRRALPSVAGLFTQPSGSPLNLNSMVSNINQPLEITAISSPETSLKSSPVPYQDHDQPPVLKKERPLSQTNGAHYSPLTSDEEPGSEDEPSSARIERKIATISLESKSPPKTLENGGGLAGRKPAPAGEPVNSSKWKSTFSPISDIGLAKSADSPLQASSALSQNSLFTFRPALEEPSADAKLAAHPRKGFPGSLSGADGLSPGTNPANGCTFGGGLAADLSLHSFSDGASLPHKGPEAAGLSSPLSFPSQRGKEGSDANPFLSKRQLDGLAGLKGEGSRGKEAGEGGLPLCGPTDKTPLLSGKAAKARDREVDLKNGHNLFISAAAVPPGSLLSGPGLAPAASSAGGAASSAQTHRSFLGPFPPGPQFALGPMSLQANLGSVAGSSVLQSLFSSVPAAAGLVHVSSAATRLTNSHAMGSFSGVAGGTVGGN
Sequence of DNA (cytosine-5)-methyltransferase 1 (P26358 whole entry): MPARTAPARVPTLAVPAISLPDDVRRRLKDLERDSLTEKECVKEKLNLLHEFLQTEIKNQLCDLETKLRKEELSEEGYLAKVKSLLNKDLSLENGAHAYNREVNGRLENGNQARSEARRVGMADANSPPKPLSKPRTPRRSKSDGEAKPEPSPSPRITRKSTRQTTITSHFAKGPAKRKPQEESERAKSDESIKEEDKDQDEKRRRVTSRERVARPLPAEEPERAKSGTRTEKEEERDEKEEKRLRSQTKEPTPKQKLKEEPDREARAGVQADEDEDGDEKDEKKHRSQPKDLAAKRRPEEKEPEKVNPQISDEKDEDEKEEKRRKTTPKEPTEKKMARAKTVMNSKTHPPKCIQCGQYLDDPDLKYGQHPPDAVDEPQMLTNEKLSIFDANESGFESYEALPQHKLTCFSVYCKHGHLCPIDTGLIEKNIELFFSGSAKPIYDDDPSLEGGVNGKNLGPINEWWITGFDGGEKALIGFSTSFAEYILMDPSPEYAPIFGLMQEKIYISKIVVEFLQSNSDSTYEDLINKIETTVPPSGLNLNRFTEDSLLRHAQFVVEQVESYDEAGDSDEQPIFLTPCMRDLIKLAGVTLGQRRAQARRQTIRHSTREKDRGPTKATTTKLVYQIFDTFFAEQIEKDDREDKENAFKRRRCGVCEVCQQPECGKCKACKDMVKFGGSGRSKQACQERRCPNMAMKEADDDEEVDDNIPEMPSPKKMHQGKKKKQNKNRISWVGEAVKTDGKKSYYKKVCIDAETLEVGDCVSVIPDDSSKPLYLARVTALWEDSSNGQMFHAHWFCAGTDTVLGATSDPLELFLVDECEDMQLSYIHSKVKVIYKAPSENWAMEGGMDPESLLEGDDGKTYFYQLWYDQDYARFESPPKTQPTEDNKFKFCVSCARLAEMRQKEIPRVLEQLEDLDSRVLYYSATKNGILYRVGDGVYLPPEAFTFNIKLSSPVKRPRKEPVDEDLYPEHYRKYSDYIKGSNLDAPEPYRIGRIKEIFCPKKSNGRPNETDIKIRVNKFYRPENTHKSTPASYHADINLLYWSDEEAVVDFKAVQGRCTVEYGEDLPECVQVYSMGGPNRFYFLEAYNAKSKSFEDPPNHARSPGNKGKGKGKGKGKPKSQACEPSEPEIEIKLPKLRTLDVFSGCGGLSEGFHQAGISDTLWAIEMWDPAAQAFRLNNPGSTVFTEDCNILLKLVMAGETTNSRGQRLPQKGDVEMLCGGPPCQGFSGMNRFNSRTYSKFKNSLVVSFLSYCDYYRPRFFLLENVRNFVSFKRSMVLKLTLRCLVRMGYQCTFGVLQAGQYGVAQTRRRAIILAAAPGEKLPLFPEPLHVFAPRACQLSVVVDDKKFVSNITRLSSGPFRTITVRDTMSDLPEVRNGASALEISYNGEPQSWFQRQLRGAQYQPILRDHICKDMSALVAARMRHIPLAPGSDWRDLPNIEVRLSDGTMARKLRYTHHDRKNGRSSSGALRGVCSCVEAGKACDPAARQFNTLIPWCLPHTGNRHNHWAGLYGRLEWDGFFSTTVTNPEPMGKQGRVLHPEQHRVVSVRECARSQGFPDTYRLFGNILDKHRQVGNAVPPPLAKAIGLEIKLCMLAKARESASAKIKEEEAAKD

## CC(C)(C)c1ccc(NC(=O)c2ncn(CC(=O)NCCn3ccc4c(N)ncnc43)n2)cc1
[1]
  IC50: 115 µM
[2]
  IC50: Not Active
[3]
  IC50: 248 µM
[4]
  IC50: Not Active
[5]
  IC50: 1 µM
[6]
  IC50: Not Active
[7]
  IC50: Not Active
Bone marrow cell [8]
  inhibition at 30 µM: 100%
Bone marrow cell [9]
  IC50: 1 µM
Bone marrow cell [10]
  IC50: 4.2 µM
[11]
  IC50: 165 µM
